This note sets out measurements from patent US8278345B2, “Inhibitors of glutaminyl cyclase” (Probiodrug AG, priority 2006, dated 2012).

This test concerns the target hQC (Homo sapiens, UniProt Q16769). As to the kind of experiment: Inhibitor assay for glutaminyl cyclase activity (fluorometric, H-Gln-βNA / H-Gln-AMC). It is filed as biochemical. The conditions noted are these: read-out: IC50. On the procedure: All measurements were performed with a BioAssay Reader HTS-7000Plus for microplates (Perkin Elmer) at 30° C. QC activity was evaluated fluorometrically using H-Gln-βNA. The samples consisted of 0.2 mM fluorogenic substrate, 0.25 U pyroglutamyl aminopeptidase (Unizyme, Hørsholm, Denmark) in 0.2 M Tris/HCl, pH 8.0 containing 20 mM EDTA and an appropriately diluted aliquot of QC in a final volume of 250 μl. Excitation/emission wavelengths were 320/410 nm. The assay reactions were initiated by addition of glutaminyl cyclase. QC activity was determined from a standard curve of β-naphthylamine under assay conditions. One unit is defined as the amount of QC catalyzing the formation of 1 μmol pGlu-βNA from H-Gln-βNA per minute under the described conditions.
In a second fluorometric assay, QC activity was determined using H-Gln-AMC as substrate. Reactions were carried out at 30° C. utilizing the NOVOStar reader for microplates (BMG labtechnologies). The samples consisted of varying concentrations of the fluorogenic substrate, 0.1 U pyroglutamyl aminopeptidase (Qiagen) in 0.05 M Tris/HCl, pH 8.0 containing 5 mM EDTA and an appropriately diluted aliquot of QC in a final volume of 250 μl. Excitation/emission wavelengths were 380/460 nm. The assay reactions were initiated by addition of glutaminyl cyclase. QC activity was determined from a standard curve of 7-amino-4-methylcoumarin under assay conditions. The kinetic data were evaluated using GraFit sofware.
For inhibitor testing, the sample composition was the same as described above, except of the putative inhibitory compound added. For a rapid test of QC-inhibition, samples contained 4 mM of the respective inhibitor and a substrate concentration at 1 KM. For detailed investigations of the inhibition and determination of Ki-values, influence of the inhibitor on the auxiliary enzymes was investigated first. In every case, there was no influence on either enzyme detected, thus enabling the reliable determination of the QC inhibition. The inhibitory constant was evaluated by fitting the set of progress curves to the general equation for competitive inhibition using GraFit software.

Sequence of hQC (Q16769 29-361): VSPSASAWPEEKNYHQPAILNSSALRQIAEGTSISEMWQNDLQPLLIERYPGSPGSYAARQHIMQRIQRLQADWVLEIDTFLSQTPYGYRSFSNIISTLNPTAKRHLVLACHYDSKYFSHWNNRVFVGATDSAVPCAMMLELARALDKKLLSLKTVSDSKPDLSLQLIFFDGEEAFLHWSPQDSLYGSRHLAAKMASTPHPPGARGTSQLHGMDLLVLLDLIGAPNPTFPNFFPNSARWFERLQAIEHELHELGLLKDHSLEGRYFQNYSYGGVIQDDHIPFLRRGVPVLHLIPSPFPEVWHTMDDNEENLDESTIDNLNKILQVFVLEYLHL

`CCC(C)C1C(F)=C(O)C(=O)N1CCCn1ccnc1` (stereo not drawn) [Compound 1, 5-sec-Butyl-4-fluoro-3-hydroxy-1-(3-imidazol-1-yl-propyl)-1,5-dihydro-pyrrol-2-one]: the IC50 (commonly the concentration needed to halve the response being measured) amounted to 3100 nM. To `CCCCCC1C(F)=C(O)C(=O)N1CCCn1ccnc1` (stereo not drawn) [Compound 2, 4-Fluoro-3-hydroxy-1-(3-imidazol-1-yl-propyl)-5-pentyl-1,5-dihydro-pyrrol-2-one] belongs 4900 nM; to `CC1C(F)=C(O)C(=O)N1CCCn1ccnc1` (stereo not drawn) [Compound 3, 4-Fluoro-3-hydroxy-1-(3-imidazol-1-yl-propyl)-5-methyl-1,5-dihydro-pyrrol-2-one], 8500 nM; to `O=C1C(O)=C(c2cccc(O)c2)C(c2cc(Cl)cc(Cl)c2O)N1CCCn1ccnc1` (stereo not drawn) [Compound 4, 5-(3,5-Dichloro-2-hydroxy-phenyl)-3-hydroxy-4-(3-hydroxy-phenyl)-1-(3-imidazol-1-yl-propyl)-1,5-dihydro-pyrrol-2-one], 2200 nM. As for `Cc1ccc(C2C(c3cccc(O)c3)=C(O)C(=O)N2CCCn2ccnc2)cc1` (stereo not drawn) [Compound 5, 3-Hydroxy-4-(3-hydroxy-phenyl)-1-(3-imidazol-1-yl-propyl)-5-p-tolyl-1,5-dihydro-pyrrol-2-one], the figure is 2200 nM; as for `CCC/C=C/C1C(c2cccc(O)c2)=C(O)C(=O)N1CCCn1ccnc1` (stereo not drawn) [Compound 6, 3-Hydroxy-4-(3-hydroxy-phenyl)-1-(3-imidazol-1-yl-propyl)-5-(pent-1-enyl)-1,5-dihydro-pyrrol-2-one], 5800 nM; as for `CCCC1C(c2cccc(O)c2)=C(O)C(=O)N1CCCn1ccnc1` (stereo not drawn) [Compound 7, 3-Hydroxy-4-(3-hydroxy-phenyl)-1-(3-imidazol-1-yl-propyl)-5-propyl-1,5-dihydro-pyrrol-2-one], 400 nM. To `O=C1C(O)=C(c2cccc(O)c2)C(c2cc[nH]n2)N1CCCn1ccnc1` (stereo not drawn) [Compound 8, 3-Hydroxy-4-(3-hydroxy-phenyl)-1-(3-imidazol-1-yl-propyl)-5-(1H-pyrazol-3-yl)-1,5-dihydro-pyrrol-2-one] belongs 9400 nM. On to `O=C1C(O)=C(c2cccc(O)c2)C(C(O)CO)N1CCCn1ccnc1` (stereo not drawn) [Compound 9, 5-(1,2-Dihydroxy-ethyl)-3-hydroxy-4-(3-hydroxy-phenyl)-1-(3-imidazol-1-yl-propyl)-1,5-dihydro-pyrrol-2-one], for which the IC50 turned out to be 2200 nM. To `CC(C)/C=C/C1C(c2cccc(O)c2)=C(O)C(=O)N1CCCn1ccnc1` (stereo not drawn) [Compound 10, 3-Hydroxy-4-(3-hydroxy-phenyl)-1-(3-imidazol-1-yl-propyl)-5-(3-methyl-but-1-enyl)-1,5-dihydro-pyrrol-2-one] belongs 5800 nM; to `Cc1ccc(C2C(c3cccc(O)c3)=C(O)C(=O)N2CCCn2ccnc2)o1` (stereo not drawn) [Compound 11, 3-Hydroxy-4-(3-hydroxy-phenyl)-1-(3-imidazol-1-yl-propyl)-5-(5-methyl-furan-2-yl)-1,5-dihydro-pyrrol-2-one], 2200 nM; to `O=C1C(O)=C(c2cccc(O)c2)C(c2ccc3[nH]ccc3c2)N1CCCn1ccnc1` (stereo not drawn) [Compound 12, 3-Hydroxy-4-(3-hydroxy-phenyl)-1-(3-imidazol-1-yl-propyl)-5-(1H-indol-5-yl)-1,5-dihydro-pyrrol-2-one], 1300 nM. To `COc1ccc(C2C(c3cccc(O)c3)=C(O)C(=O)N2CCCn2ccnc2)cc1` (stereo not drawn) [Compound 13, 3-Hydroxy-4-(3-hydroxy-phenyl)-1-(3-imidazol-1-yl-propyl)-5-(4-methoxy-phenyl)-1,5-dihydro-pyrrol-2-one] belongs 2200 nM; to `O=C1C(O)=C(c2cccc(O)c2)C(c2ccccc2O)N1CCCn1ccnc1` (stereo not drawn) [Compound 14, 3-Hydroxy-5-(2-hydroxy-phenyl)-4-(3-hydroxy-phenyl)-1-(3-imidazol-1-yl-propyl)-1,5-dihydro-pyrrol-2-one], 2200 nM. As for `Cc1ccc(C2C(c3cccc(O)c3)=C(O)C(=O)N2CCCn2ccnc2)cc1C` (stereo not drawn) [Compound 15, 5-(3,4-Dimethyl-phenyl)-3-hydroxy-4-(3-hydroxy-phenyl)-1-(3-imidazol-1-yl-propyl)-1,5-dihydro-pyrrol-2-one], the figure is 1300 nM; as for `CCCCCC1C(c2cccc(O)c2)=C(O)C(=O)N1CCCn1ccnc1` (stereo not drawn) [Compound 16, 3-Hydroxy-4-(3-hydroxy-phenyl)-1-(3-imidazol-1-yl-propyl)-5-pentyl-1,5-dihydro-pyrrol-2-one], 400 nM. As for `O=C1C(O)=C(c2cccc(O)c2)C(c2ccc(CO)o2)N1CCCn1ccnc1` (stereo not drawn) [Compound 17, 3-Hydroxy-5-(5-hydroxymethyl-furan-2-yl)-4-(3-hydroxy-phenyl)-1-(3-imidazol-1-yl-propyl)-1,5-dihydro-pyrrol-2-one], the concentration for half-maximal inhibition (IC50) stood at 5800 nM. For the compound `O=C1C(O)=C(c2cccc(O)c2)C(c2c[nH]c3ccccc23)N1CCCn1ccnc1` (stereo not drawn) [Compound 18, 3-Hydroxy-4-(3-hydroxy-phenyl)-1-(3-imidazol-1-yl-propyl)-5-(1H-indol-3-yl)-1,5-dihydro-pyrrol-2-one], the IC50 worked out at 9400 nM.

For `O=C1C(O)=C(c2cccc(O)c2)C(C2CC2)N1CCCn1ccnc1` (stereo not drawn) [Compound 19, 5-Cyclopropyl-3-hydroxy-4-(3-hydroxy-phenyl)-1-(3-imidazol-1-yl-propyl)-1,5-dihydro-pyrrol-2-one], the half-maximal inhibitory concentration (IC50) stood at 1300 nM. To `CC1=C(O)C(=O)N(CCCn2ccnc2)C1c1cc(Cl)cc(Cl)c1O` (stereo not drawn) [Compound 20, 5-(3,5-Dichloro-2-hydroxy-phenyl)-3-hydroxy-1-(3-imidazol-1-yl-propyl)-4-methyl-1,5-dihydro-pyrrol-2-one] belongs 400 nM. As for `CC1=C(O)C(=O)N(CCCn2ccnc2)C1c1ccc(C)cc1` (stereo not drawn) [Compound 21, 3-Hydroxy-1-(3-imidazol-1-yl-propyl)-4-methyl-5-p-tolyl-1,5-dihydro-pyrrol-2-one], the figure is 2200 nM; as for `CCCC1C(C)=C(O)C(=O)N1CCCn1ccnc1` (stereo not drawn) [Compound 22, 3-Hydroxy-1-(3-imidazol-1-yl-propyl)-4-methyl-5-propyl-1,5-dihydro-pyrrol-2-one], 4900 nM.

Regarding `CC1=C(O)C(=O)N(CCCn2ccnc2)C1c1cc[nH]n1` (stereo not drawn) [Compound 23, 3-Hydroxy-1-(3-imidazol-1-yl-propyl)-4-methyl-5-(1H-pyrazol-3-yl)-1,5-dihydro-pyrrol-2-one], the IC50 came out at 7600 nM. As to `CC1=C(O)C(=O)N(CCCn2ccnc2)C1/C=C/C(C)C` (stereo not drawn) [Compound 24, 3-Hydroxy-1-(3-imidazol-1-yl-propyl)-4-methyl-5-(3-methyl-but-1-enyl)-1,5-dihydro-pyrrol-2-one], the IC50 stood at 5800 nM. Turning to `CC1=C(O)C(=O)N(CCCn2ccnc2)C1c1ccc(C)o1` (stereo not drawn) [Compound 25, 3-Hydroxy-1-(3-imidazol-1-yl-propyl)-4-methyl-5-(5-methyl-furan-2-yl)-1,5-dihydro-pyrrol-2-one], the IC50 stood at 4900 nM. As for `CC1=C(O)C(=O)N(CCCn2ccnc2)C1c1ccc2[nH]ccc2c1` (stereo not drawn) [Compound 26, 3-Hydroxy-1-(3-imidazol-1-yl-propyl)-5-(1H-indol-5-yl)-4-methyl-1,5-dihydro-pyrrol-2-one], the figure is 40 nM; as for `COc1ccc(C2C(C)=C(O)C(=O)N2CCCn2ccnc2)cc1` (stereo not drawn) [Compound 27, 3-Hydroxy-1-(3-imidazol-1-yl-propyl)-5-(4-methoxy-phenyl)-4-methyl-1,5-dihydro-pyrrol-2-one], 4000 nM.
